Results reported in ChEMBL document CHEMBL1201862, “PubChem BioAssay data set” (2004).
Activity calls are given as the source filed them.

Columns and labels:
[1] = molecular target: T1, Carboxy-terminal domain RNA polymerase II polypeptide A small phosphatase 1 (Homo sapiens, UniProt Q9GZU7); assay: CTDSP1 inhibitors, concentration-response, biochemical, absorbance readout, ultra-high-throughput screen actives (AID 540297); assay type: functional
T1 sequence (Q9GZU7 whole entry): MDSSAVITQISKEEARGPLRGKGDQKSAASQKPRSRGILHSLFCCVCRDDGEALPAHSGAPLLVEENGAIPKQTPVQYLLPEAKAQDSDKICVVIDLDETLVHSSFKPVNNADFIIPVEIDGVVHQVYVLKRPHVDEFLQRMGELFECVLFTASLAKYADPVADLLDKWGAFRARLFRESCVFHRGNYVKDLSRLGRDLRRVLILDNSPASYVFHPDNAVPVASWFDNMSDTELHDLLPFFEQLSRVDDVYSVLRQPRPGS

[2] = cells; assay type: functional, cell-based
[3] = cells; assay type: functional, cell-based; remark: listed apart in the source
[4] = fluconazole-exposed Candida albicans growth modulators – fluorescence, retest, confirmation (AID 2467); assay type: functional, cell-based
[5] = NIH-3T3 fibroblast cytotoxicity, dose response, cytotoxicity control, cell-based, fluorescence, Alamar Blue, secondary assay (AID 2327); assay type: functional;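 note: NIH-3T3 mouse fibroblasts cultured with fluconazole at 8 µg/mL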
[6] = molecular target: T2, Fatty acid synthase (Homo sapiens, UniProt P49327); assay: inhibition of human FAS-TE enzyme activity – biochemical, kinetic fluorescence intensity, dose response (AID 624326); assay type: functional;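 note: rate of fluorescence rise from hydrolysis of a fluorogenic O-methyl fluorescein ester substrate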
T2 sequence (P49327 whole entry): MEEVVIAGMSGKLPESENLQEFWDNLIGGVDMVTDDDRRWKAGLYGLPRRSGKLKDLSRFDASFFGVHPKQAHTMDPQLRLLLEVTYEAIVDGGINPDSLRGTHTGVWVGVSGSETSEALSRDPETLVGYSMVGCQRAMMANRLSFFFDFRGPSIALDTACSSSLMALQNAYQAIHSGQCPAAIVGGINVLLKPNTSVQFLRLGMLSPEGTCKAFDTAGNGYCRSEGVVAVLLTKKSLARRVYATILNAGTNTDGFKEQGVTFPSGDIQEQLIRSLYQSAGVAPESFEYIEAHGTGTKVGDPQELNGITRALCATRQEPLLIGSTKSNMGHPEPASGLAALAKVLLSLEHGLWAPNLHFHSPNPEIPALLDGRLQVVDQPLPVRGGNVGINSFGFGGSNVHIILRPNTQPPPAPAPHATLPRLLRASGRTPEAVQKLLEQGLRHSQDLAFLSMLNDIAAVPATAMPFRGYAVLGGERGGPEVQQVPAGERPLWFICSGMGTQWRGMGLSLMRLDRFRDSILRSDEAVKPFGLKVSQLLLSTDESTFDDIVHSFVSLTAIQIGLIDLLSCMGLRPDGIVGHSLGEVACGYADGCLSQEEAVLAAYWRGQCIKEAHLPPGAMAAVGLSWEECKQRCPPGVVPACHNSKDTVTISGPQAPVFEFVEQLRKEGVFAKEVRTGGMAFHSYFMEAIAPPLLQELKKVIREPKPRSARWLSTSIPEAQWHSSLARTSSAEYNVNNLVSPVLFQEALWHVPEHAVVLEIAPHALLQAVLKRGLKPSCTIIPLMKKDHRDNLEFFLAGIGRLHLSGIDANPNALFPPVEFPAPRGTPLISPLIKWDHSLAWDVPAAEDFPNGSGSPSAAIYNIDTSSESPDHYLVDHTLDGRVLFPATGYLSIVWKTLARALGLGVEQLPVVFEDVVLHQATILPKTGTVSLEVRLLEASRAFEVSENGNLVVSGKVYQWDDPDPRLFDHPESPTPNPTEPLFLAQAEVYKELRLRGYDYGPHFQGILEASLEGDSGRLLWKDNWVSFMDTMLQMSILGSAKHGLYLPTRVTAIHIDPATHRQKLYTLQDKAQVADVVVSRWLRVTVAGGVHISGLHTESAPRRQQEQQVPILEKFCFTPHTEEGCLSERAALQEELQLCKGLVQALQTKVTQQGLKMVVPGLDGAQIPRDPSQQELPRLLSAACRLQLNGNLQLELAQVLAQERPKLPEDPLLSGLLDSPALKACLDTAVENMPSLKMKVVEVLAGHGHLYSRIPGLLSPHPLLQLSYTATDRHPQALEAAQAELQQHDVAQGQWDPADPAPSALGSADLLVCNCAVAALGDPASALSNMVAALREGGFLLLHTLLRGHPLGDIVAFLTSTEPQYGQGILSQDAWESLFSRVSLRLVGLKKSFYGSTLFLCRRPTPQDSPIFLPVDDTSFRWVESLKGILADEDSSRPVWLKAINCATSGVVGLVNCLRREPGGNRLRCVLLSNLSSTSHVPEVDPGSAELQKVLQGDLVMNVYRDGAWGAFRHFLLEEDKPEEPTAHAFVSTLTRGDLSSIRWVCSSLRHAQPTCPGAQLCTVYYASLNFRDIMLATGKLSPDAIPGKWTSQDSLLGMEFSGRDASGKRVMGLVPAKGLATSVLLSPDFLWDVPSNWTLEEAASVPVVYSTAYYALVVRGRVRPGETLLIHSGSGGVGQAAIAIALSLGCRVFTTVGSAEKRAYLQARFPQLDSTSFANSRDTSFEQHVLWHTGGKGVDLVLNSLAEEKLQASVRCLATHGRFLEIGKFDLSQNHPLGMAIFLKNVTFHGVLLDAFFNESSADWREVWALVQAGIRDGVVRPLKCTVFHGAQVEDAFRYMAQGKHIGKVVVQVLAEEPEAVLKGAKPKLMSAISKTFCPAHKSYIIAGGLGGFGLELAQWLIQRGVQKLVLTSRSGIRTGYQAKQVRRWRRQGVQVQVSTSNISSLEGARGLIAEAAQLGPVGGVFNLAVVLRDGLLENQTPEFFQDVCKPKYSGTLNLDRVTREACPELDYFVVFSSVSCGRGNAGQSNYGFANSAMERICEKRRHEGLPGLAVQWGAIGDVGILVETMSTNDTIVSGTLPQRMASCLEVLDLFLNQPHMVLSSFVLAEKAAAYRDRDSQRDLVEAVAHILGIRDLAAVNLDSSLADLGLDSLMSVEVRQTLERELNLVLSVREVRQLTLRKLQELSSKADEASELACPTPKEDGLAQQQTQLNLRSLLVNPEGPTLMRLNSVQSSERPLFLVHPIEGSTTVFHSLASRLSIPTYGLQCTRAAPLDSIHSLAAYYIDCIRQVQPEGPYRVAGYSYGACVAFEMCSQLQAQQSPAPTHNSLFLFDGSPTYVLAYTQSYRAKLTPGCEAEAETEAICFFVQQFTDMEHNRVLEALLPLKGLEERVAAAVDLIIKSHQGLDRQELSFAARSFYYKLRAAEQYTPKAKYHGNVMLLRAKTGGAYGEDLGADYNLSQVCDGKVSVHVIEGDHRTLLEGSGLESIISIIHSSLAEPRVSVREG

[7] = molecular target: T2, Fatty acid synthase; assay: inhibition of human FAS-TE enzyme activity – biochemical, endpoint fluorescence intensity, uHTS hits, dose response (AID 624327); assay type: functional;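 note: fluorescence from hydrolysis of an O-methyl fluorescein acyl ester substrate by the enzyme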
[8] = molecular target: Cytochrome P450 2C9 (Homo sapiens, UniProt P11712)
Chain of Cytochrome P450 2C9 (P11712 whole entry): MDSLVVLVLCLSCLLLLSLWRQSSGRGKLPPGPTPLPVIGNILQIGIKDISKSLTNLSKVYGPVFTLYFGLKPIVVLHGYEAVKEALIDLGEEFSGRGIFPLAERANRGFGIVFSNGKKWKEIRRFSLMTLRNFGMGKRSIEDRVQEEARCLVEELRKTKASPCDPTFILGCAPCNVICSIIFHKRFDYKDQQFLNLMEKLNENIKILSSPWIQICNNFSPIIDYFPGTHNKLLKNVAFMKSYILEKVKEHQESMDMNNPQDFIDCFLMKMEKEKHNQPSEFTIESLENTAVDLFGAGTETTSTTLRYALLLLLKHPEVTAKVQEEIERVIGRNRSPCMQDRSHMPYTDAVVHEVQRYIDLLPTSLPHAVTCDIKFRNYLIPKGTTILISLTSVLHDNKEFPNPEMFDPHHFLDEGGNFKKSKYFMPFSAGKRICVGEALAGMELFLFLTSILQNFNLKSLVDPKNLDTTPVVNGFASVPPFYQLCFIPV

[9] = molecular target: Cytochrome P450 2C19 (Homo sapiens, UniProt P33261); assay: Cytochrome panel assay with activity outcomes. Panel member name: p450-cyp2c19 Compounds with AC50 equal or less than 10 uM are considered active; assay type: functional; conditions: read-out: AC50
Chain of Cytochrome P450 2C19 (P33261 whole entry): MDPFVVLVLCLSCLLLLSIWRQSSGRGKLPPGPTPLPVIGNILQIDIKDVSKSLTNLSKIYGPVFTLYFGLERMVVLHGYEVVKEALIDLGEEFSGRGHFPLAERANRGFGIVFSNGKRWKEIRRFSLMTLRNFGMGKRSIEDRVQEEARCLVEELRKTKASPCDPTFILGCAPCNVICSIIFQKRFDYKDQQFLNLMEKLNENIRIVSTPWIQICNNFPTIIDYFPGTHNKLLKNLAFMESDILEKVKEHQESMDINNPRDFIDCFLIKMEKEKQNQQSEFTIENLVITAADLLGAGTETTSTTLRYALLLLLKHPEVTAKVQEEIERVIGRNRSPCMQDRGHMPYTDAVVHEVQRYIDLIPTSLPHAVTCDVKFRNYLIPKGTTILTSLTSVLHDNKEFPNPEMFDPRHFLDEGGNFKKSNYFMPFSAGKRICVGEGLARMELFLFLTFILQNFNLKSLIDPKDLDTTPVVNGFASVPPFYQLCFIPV

[10] = molecular target: Cytochrome P450 3A4 (Homo sapiens, UniProt P08684);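 note: CYP3A4 tested as one member of a cytochrome P450 panel screen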
Chain of Cytochrome P450 3A4 (P08684 whole entry): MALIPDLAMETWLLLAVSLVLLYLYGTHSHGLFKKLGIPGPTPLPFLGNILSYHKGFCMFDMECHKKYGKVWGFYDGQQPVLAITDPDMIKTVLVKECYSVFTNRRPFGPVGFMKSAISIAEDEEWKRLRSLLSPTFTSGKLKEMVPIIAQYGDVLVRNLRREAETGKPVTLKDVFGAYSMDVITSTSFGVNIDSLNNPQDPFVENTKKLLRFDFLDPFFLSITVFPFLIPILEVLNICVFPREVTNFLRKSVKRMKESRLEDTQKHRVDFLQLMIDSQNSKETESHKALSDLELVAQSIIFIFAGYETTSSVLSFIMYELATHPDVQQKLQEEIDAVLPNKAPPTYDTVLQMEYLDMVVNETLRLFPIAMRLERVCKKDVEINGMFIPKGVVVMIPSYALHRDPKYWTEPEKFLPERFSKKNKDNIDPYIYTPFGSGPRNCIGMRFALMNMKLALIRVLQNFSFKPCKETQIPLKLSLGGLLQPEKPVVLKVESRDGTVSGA

[11] = alpha-synuclein stem-loop luciferase translation blockers – H4 neuroglioma cells, luminescence, confirmation (AID 1988); assay type: functional, cell-based
[12] = luciferase reporter signal suppression in cells – H4 neuroglioma cells, luminescence, dose response (AID 1990); assay type: functional, cell-based
[13] = Luminescence Cell-Based Dose Response HTS to Identify Inhibitors of 5'UTR Stem-Loop Driven Prion Protein mRNA Translation in H4 Neuroglioblastoma Cells. [Related pubchem assays: 1827 (Project Summary), 1813 (Primary HTS)]; assay type: functional
[14] = molecular target: T3, Streptokinase A (Streptococcus pyogenes serotype M1, UniProt P10520); assay: viability-normalized secreted streptokinase activity reduction – plasminogen activation absorbance, OD405, dose response (AID 1914); assay type: functional, Streptococcus pyogenes M1 GAS;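 note: secreted streptokinase activity via plasminogen activation per viability signal from cell pellet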
T3 sequence (P10520 whole entry): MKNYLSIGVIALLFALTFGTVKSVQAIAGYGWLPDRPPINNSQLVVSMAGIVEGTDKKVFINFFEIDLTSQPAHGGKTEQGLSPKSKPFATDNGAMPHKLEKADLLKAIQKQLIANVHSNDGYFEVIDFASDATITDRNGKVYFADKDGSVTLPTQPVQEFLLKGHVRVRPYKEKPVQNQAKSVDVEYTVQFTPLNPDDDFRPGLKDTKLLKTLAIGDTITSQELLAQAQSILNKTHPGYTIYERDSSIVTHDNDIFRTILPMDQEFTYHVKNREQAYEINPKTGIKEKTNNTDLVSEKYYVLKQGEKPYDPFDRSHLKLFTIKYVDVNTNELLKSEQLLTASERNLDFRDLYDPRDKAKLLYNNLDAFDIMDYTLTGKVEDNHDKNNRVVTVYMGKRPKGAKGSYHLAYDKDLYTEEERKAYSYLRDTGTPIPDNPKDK

[15] = tested on: Streptococcus; assay: GAS UMAA2166 growth inhibition – luminescence, BacTiterGlo, counter-screen for streptokinase expression inhibitor project, dose response (AID 1915); assay type: functional, organism-based;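 note: potency for reduction of bacterial viability or growth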
[16] = cells; assay type: functional
[17] = tested on: Streptococcus sp. 'group A'; assay: Streptococcus pyogenes SK(-)GAS viability under kanamycin – luminescence, BacTiterGlo, confirmation, counter-screen for streptokinase expression inhibitor project, dose response (AID 1900); assay type: functional, organism-based
[18] = molecular target: Luciferin 4-monooxygenase (Photinus pyralis, UniProt P08659); assay: inhibition of purified Photinus pyralis luciferase – biochemical, luminescence, dose response (AID 1891)
Chain of Luciferin 4-monooxygenase (P08659 whole entry): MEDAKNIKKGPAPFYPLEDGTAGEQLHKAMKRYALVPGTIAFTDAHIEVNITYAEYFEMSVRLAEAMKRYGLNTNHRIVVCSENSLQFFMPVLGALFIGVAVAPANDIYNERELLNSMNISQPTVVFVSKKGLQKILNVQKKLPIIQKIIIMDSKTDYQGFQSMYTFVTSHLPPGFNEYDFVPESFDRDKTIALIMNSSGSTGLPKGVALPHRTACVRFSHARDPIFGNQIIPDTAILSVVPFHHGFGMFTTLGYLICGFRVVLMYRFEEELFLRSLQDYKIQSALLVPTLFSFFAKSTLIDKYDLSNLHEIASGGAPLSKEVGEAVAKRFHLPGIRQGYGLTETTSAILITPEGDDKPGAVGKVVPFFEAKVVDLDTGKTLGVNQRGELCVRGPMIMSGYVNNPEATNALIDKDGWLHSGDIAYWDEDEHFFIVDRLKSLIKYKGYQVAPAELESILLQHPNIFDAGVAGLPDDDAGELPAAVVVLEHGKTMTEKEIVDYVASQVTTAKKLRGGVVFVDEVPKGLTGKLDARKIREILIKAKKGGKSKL

[19] = Luminescence Cell-Based Dose Confirmation HTS to Identify Inhibitors of Platelet Dense Granule Release. [Related pubchem assays: 1663 (Primary HTS), 1678 (Summary of Project)]; assay type: functional
[20] = DRD fibroblast viability loss – cell-based, non-viral oncogenic, luminescence, dose response (AID 1934); assay type: functional; conditions: Homo sapiens
[21] = molecular target: Paired box protein Pax-8 (Homo sapiens, UniProt Q06710); assay: PAX8 transcriptional activity inhibition in RMG-I – RMG-I cells, luciferase, cherry-pick, dose response (AID 687027); assay type: functional, cell-based;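 note: luciferase reporter driven by Pax8 target thyroperoxidase promoter measured by SteadyGlo luminescence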
Chain of Paired box protein Pax-8 (Q06710 whole entry): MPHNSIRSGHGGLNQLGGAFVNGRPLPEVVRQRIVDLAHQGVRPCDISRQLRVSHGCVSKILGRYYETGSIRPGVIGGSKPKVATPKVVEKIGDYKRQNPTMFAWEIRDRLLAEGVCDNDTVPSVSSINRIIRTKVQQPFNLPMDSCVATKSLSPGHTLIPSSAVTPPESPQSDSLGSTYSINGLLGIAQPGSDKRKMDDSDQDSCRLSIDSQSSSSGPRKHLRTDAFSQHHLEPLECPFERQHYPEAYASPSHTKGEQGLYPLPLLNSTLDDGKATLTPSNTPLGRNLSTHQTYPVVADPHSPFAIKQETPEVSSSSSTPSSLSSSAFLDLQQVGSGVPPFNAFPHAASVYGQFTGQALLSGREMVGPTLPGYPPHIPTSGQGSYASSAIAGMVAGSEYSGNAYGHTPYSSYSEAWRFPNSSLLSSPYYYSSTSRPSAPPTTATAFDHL

[22] = tested on: BJ; assay: cells; assay type: functional, cell-based; conditions: Homo sapiens
[23] = tested on: BJ; assay: BJ-TERT-LT-ST fibroblast viability loss – cell-based, RAS-independent, luminescence, dose response (AID 1935); assay type: functional; conditions: Homo sapiens;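 note: BJ fibroblasts immortalized with TERT plus LT and ST oncogenes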

In the case of `O=C(Cn1ncc(Cl)c(Cl)c1=O)NC1CCS(=O)(=O)C1` (stereo not given), the IC50 [1] is reported as 8.49 µM (active).
With `CCOC(=O)/C(=N\Nc1cccc(C(F)(F)F)c1)N1CCOCC1` the EC50 [2] was 320 µM (active), the EC50 [3] was > 350 µM (not active) and the EC50 [4] was > 38 µM (not active). For the same compound, the EC50 [5] was > 160 µM (inconclusive).
For `CC1CCCC(C)N1C(=O)COC(=O)c1cc([N+](=O)[O-])ccc1N1CCOCC1` (stereo not given), the IC50 [6] was 9.93 µM (active) and the IC50 [7] was 7.31 µM (active).
In the case of `CC(C)C(=O)c1c(C(C)C)nn2ccccc12` [IBUDILAST], the AC50 [8] is reported as “inconclusive” and the AC50 [9] is reported as 3.16 µM (inconclusive).
In the case of `CC(=O)Nc1cc(S(=O)(=O)Nc2ccccc2)c(C)cc1C`, the AC50 [8] is reported as “inconclusive” and the AC50 [10] is reported as 28.2 µM (inconclusive).
In the case of `CN(CC1CCCO1)S(=O)(=O)c1ccc(C(=O)Nc2nccs2)cc1` (stereo not given), the EC50 [2] is reported as > 350 µM (not active) and the EC50 [3] is reported as > 350 µM (not active).
For `Cc1ccc(C(=O)N/N=C/c2cc(C)n(-c3ccc(Br)cc3)c2C)cc1[N+](=O)[O-]`, the AC50 [8] was “inconclusive”, the EC50 [11] was 16.7 µM (active) and the EC50 [12] was 11.2 µM (active). The EC50 [13] was 17.4 µM (active).
For `O=C(CNC(=O)c1ccc([N+](=O)[O-])cc1)c1ccccc1`, the AC50 [8] was “inconclusive” and the AC50 [9] was 2.82 µM (inconclusive).
In the case of `O=C(Nc1nnc(-c2ccc(Br)cc2)o1)c1ccco1`, the EC50 [14] is reported as > 150 µM (not active), the EC50 [15] is reported as 13.7 µM (active) and the IC50 [16] is reported as 3.95 µM (active). For the same compound, the EC50 [17] was 3.78 µM (active).
With `CCCC(=O)Nc1cc(C(F)(F)F)ccc1N1CCOCC1` the EC50 [18] was > 112 µM (not active) and the EC50 [19] was > 112 µM (not active).
In the case of `COc1ccc(CCNC(=O)CC(NC(=O)c2ccccc2Cl)c2ccccc2)cc1` (stereo not given), the EC50 [2] is reported as > 350 µM (not active) and the EC50 [3] is reported as > 350 µM (not active).
For `Oc1c(Br)c(Br)c(Br)c(Br)c1Br` [PENTABROMOPHENOL], the IC50 [6] was 6.52 µM (active) and the IC50 [7] was 6.27 µM (active).
For `NC(=NOC(=O)CC1CCCCC1)c1cccc([N+](=O)[O-])c1`, the IC50 [6] was 8.29 µM (active) and the IC50 [7] was 7.05 µM (active).
For `Cc1cnc(C(=O)OCC(=O)Nc2ccc(Cl)cc2Cl)cn1`, the EC50 [18] was > 112 µM (not active) and the EC50 [19] was 14.8 µM (active).
With `COc1ccc(N/C=C\C(=O)c2ccc3c(c2)OCO3)cc1` the EC50 [2] was 4.39 µM (active) and the EC50 [3] was > 350 µM (not active).
With `Cc1ccc(S(=O)(=O)Nc2cccc(-c3ccc(N4CCCCCC4)nn3)c2)cc1` the IC50 [6] was 3.42 µM (active) and the IC50 [7] was 6.68 µM (active).
For `COc1cc(/C=C(/C#N)C(=O)Nc2ccccc2)ccc1OCc1ccc(C(=O)O)cc1`, the IC50 [1] was 3.34 µM (active).
For `CCOc1ccc(-c2ccc(NS(=O)(=O)c3cc([N+](=O)[O-])c(C)c([N+](=O)[O-])c3)cc2)nn1`, the IC50 [6] was 0.706 µM (active) and the IC50 [7] was 0.872 µM (active).
With `CCOc1ccccc1C1C2=C(O)OCC2=Nc2cc3c(cc21)OCO3` (stereo not given) the EC50 [20] was 0.468 µM (active), the EC50 [4] was > 38 µM (not active) and the AC50 [21] was 2.15 µM (active). For the same compound, the EC50 [22] was 1.11 µM (inconclusive) and the EC50 [23] was 0.442 µM (active).
